Assay results published in ChEMBL document CHEMBL4507324 (2021).

Legend:
Settings in all cases: Compound concentration 100.0 nM
[1] = system: Tyrosine-protein kinase ABL1 (Homo sapiens), P00519 [T315I]
[2] = system: Tyrosine-protein kinase ABL1 (Homo sapiens), P00519 [T315I]; remark: listed apart in the source
[3] = molecular target: Tyrosine-protein kinase ABL1 (Homo sapiens) (UniProt P00519)
[4] = system: ALK tyrosine kinase receptor (Homo sapiens), Q9UM73 [L1196M]
[5] = molecular target: 5'-AMP-activated protein kinase catalytic subunit alpha-1 (Homo sapiens) (UniProt Q13131)
[6] = molecular target: Calcium/calmodulin-dependent protein kinase type II subunit delta (Homo sapiens) (UniProt Q13557)
[7] = molecular target: Cyclin-dependent kinase 11B (Homo sapiens) (UniProt P21127)
Chain of Cyclin-dependent kinase 11B (Homo sapiens) (P21127 whole entry): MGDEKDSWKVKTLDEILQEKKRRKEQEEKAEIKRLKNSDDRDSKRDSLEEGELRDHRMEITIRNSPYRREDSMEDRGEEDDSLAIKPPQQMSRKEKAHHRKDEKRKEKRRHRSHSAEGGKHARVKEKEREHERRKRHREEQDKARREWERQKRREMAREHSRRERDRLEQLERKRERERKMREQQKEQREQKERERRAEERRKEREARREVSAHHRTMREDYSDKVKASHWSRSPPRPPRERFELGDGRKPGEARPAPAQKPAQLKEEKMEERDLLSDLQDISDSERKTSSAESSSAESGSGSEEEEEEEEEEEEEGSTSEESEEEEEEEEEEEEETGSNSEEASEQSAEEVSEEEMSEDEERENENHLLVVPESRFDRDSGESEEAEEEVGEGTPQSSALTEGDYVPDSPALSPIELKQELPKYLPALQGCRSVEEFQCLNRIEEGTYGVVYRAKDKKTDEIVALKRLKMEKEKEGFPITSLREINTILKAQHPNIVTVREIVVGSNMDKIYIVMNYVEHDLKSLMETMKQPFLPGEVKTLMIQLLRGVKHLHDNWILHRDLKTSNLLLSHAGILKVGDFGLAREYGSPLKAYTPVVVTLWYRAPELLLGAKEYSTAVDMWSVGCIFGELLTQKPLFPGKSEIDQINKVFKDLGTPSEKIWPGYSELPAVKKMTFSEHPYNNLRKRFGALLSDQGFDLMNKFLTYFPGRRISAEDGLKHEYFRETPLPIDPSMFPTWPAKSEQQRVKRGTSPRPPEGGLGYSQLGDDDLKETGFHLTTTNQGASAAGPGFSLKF

[8] = molecular target: Cyclin-dependent kinase 2 (Homo sapiens) (UniProt P24941)
[9] = molecular target: Dual specificity protein kinase CLK4 (Homo sapiens) (UniProt Q9HAZ1)
[10] = molecular target: Casein kinase I isoform alpha-like (Homo sapiens) (UniProt Q8N752)
Chain of Casein kinase I isoform alpha-like (Homo sapiens) (Q8N752 whole entry, canonical isoform): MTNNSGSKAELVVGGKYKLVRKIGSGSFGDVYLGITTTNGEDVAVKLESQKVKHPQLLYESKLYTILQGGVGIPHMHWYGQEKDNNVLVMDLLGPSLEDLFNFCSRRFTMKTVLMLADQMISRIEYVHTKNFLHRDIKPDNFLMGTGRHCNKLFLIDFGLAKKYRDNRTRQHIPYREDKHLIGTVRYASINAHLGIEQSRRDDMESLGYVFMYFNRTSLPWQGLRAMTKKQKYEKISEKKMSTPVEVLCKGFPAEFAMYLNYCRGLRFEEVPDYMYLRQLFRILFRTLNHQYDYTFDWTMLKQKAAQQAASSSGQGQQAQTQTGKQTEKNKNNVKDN

[11] = molecular target: Casein kinase I isoform gamma-3 (Homo sapiens) (UniProt Q9Y6M4)
Chain of Casein kinase I isoform gamma-3 (Homo sapiens) (Q9Y6M4 whole entry, looked up, canonical isoform): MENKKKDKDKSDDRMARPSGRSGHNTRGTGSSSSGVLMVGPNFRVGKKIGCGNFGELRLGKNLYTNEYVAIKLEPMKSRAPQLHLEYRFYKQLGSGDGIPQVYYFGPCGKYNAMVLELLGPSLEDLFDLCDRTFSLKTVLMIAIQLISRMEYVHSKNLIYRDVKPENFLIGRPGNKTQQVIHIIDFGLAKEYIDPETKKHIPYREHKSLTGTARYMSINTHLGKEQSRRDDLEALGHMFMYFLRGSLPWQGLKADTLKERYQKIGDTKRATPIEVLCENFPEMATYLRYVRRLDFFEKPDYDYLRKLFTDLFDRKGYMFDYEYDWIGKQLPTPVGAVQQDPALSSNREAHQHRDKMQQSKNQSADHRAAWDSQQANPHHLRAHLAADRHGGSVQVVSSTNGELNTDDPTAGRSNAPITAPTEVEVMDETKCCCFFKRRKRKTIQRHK

[12] = molecular target: Serine/threonine-protein kinase DCLK2 (Homo sapiens) (UniProt Q8N568)
[13] = system: Epidermal growth factor receptor (Homo sapiens), P00533 [UNDEFINED MUTATION]
[14] = system: Receptor-type tyrosine-protein kinase FLT3 (Homo sapiens), P36888 [D835H]
[15] = system: Receptor-type tyrosine-protein kinase FLT3 (Homo sapiens), P36888 [UNDEFINED MUTATION]
[16] = system: eIF-2-alpha kinase GCN2 (Homo sapiens), Q9P2K8 [S808G]
[17] = molecular target: Glycogen synthase kinase-3 alpha (Homo sapiens) (UniProt P49840)
[18] = molecular target: Mitogen-activated protein kinase kinase kinase kinase 1 (Homo sapiens) (UniProt Q92918)
[19] = molecular target: Inhibitor of nuclear factor kappa-B kinase subunit epsilon (Homo sapiens) (UniProt Q14164)
[20] = molecular target: Mitogen-activated protein kinase 8 (Homo sapiens) (UniProt P45983)
[21] = molecular target: Mitogen-activated protein kinase kinase kinase 13 (Homo sapiens) (UniProt O43283)
[22] = molecular target: Mitogen-activated protein kinase kinase kinase 1 (Homo sapiens) (UniProt Q13233)
[23] = molecular target: Dual specificity mitogen-activated protein kinase kinase 1 (Homo sapiens) (UniProt Q02750)
[24] = system: Hepatocyte growth factor receptor (Homo sapiens), P08581 [M1250T]
[25] = molecular target: Serine/threonine-protein kinase 4 (Homo sapiens) (UniProt Q13043)
Chain of Serine/threonine-protein kinase 4 (Homo sapiens) (Q13043 whole entry): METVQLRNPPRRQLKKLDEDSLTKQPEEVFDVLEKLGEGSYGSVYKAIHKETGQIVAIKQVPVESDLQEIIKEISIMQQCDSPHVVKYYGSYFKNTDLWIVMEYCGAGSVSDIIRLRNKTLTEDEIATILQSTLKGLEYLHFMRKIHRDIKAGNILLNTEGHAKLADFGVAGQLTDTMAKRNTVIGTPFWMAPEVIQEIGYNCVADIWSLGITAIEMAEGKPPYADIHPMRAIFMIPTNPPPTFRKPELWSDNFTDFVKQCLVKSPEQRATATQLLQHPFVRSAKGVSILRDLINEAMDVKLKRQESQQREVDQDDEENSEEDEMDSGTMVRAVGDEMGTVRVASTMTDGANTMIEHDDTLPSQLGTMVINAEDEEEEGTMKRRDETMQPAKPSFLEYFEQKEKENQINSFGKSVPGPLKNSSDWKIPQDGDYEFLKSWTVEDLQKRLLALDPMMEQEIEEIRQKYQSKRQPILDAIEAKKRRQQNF

[26] = molecular target: Serine/threonine-protein kinase 24 (Homo sapiens) (UniProt Q9Y6E0)
[27] = molecular target: Myosin light chain kinase, smooth muscle (Homo sapiens) (UniProt Q15746)
Chain of Myosin light chain kinase, smooth muscle (Homo sapiens) (Q15746 whole entry): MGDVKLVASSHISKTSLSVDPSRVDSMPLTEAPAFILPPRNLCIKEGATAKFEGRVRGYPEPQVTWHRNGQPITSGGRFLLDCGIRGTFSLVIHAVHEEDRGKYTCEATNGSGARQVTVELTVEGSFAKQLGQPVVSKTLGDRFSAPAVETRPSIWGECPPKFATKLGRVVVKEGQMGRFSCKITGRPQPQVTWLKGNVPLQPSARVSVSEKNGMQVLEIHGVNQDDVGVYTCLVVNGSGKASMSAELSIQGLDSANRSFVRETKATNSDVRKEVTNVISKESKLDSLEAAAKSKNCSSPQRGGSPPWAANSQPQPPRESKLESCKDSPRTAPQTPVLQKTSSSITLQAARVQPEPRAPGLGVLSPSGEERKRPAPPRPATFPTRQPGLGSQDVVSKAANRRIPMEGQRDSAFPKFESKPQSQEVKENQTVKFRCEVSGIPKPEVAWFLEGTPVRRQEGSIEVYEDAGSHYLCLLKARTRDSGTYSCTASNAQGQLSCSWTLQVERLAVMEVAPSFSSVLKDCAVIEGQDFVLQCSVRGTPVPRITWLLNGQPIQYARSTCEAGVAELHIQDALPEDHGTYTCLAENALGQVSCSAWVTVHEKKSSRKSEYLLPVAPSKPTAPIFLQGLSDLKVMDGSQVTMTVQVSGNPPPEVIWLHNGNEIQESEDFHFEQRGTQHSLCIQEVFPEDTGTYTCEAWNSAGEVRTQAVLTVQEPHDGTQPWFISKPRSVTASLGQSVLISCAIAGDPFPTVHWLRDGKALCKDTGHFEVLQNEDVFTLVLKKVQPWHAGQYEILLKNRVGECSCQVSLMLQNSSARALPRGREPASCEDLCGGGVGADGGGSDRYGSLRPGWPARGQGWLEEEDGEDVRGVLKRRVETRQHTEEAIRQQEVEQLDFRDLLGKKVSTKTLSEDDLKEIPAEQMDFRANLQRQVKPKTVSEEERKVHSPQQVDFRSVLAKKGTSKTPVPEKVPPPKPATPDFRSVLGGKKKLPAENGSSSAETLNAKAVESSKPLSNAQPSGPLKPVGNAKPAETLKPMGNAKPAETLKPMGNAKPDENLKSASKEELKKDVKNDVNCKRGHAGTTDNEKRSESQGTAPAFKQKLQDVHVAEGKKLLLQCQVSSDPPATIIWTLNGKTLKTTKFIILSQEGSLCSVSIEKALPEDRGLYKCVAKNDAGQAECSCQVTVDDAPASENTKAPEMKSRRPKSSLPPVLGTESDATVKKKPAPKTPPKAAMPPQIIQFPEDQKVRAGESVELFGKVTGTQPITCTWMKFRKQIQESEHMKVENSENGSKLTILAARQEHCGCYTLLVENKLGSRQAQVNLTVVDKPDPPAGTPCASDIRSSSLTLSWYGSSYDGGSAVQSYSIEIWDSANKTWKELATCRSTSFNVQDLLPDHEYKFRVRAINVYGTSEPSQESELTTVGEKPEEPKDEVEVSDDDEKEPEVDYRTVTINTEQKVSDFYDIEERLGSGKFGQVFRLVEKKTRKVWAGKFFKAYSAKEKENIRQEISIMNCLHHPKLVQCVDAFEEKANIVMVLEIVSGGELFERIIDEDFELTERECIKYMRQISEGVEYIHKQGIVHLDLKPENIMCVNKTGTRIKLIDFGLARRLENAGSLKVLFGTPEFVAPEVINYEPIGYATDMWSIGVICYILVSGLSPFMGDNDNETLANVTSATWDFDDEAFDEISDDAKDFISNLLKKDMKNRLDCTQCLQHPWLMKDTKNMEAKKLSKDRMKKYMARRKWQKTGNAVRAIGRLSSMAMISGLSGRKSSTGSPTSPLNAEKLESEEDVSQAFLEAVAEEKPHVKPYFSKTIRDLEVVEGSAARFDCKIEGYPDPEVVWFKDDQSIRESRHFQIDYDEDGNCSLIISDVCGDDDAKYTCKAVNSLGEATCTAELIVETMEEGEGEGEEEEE

[28] = molecular target: Serine/threonine-protein kinase Nek3 (Homo sapiens) (UniProt P51956)
[29] = molecular target: Serine/threonine-protein kinase Nek4 (Homo sapiens) (UniProt P51957)
[30] = molecular target: Cyclin-dependent kinase 14 (Homo sapiens) (UniProt O94921)
[31] = molecular target: 1-phosphatidylinositol 3-phosphate 5-kinase (Homo sapiens) (UniProt Q9Y2I7)
[32] = molecular target: cAMP-dependent protein kinase catalytic subunit beta (Homo sapiens) (UniProt P22694)
[33] = molecular target: Membrane-associated tyrosine- and threonine-specific cdc2-inhibitory kinase (Homo sapiens) (UniProt Q99640)
[34] = molecular target: Serine/threonine-protein kinase D1 (Homo sapiens) (UniProt Q15139)
[35] = molecular target: Serine/threonine-protein kinase D2 (Homo sapiens) (UniProt Q9BZL6)
[36] = molecular target: RAF proto-oncogene serine/threonine-protein kinase (Homo sapiens) (UniProt P04049)
[37] = molecular target: Rho-associated protein kinase 2 (Homo sapiens) (UniProt O75116)
[38] = molecular target: Ribosomal protein S6 kinase alpha-1 (Homo sapiens) (UniProt Q15418)
Chain of Ribosomal protein S6 kinase alpha-1 (Homo sapiens) (Q15418 whole entry): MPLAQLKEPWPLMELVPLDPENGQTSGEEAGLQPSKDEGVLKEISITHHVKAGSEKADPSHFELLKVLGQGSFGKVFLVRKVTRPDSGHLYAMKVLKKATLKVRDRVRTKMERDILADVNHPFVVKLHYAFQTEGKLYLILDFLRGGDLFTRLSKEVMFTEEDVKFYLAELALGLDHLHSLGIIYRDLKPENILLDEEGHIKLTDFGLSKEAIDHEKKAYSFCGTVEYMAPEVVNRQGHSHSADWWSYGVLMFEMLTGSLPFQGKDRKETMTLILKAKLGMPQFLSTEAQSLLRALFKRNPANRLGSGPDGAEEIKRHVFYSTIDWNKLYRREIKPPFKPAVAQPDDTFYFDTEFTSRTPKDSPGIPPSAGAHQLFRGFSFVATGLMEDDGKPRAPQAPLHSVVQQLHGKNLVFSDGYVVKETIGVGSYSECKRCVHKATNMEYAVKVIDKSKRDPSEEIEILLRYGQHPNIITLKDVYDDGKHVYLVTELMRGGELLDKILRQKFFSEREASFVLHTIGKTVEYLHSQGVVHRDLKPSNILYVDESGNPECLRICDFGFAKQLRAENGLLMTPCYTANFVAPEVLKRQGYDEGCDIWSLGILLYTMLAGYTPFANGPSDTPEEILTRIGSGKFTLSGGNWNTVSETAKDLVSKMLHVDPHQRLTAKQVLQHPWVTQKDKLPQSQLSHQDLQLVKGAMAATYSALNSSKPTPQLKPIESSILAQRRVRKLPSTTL

[39] = molecular target: SRSF protein kinase 1 (Homo sapiens) (UniProt Q96SB4)
[40] = molecular target: Serine/threonine-protein kinase 35 (Homo sapiens) (UniProt Q8TDR2)
[41] = molecular target: Tyrosine-protein kinase Tec (Homo sapiens) (UniProt P42680)
[42] = molecular target: Serine/threonine-protein kinase tousled-like 1 (Homo sapiens) (UniProt Q9UKI8)
[43] = molecular target: NT-3 growth factor receptor (Homo sapiens) (UniProt Q16288)
[44] = molecular target: Serine/threonine-protein kinase ULK3 (Homo sapiens) (UniProt Q6PHR2)
[45] = molecular target: Tyrosine-protein kinase Yes (Homo sapiens) (UniProt P07947)

Measured: residual activity

CS(=O)(=O)N1CCCC(NC(=O)[C@H](CCC2CCCCC2)NC(=O)c2ccc(CNc3ncnc4c3nnn4-c3ccccc3)cc2)C1 (stereo not given in full) [SR-301]
inactive: [1] 100% | [2] 100% | [3] 82% | [4] 100% | [5] 100% | [6] 93% | [7] 100% | [8] 100% | [9] 85% | [10] 100% | [11] 100% | [12] 95% | [13] 100% | [14] 94% | [15] 100% | [16] 100% | [17] 100% | [18] 100% | [19] 73% | [20] 85% | [21] 100% | [22] 81% | [23] 100% | [24] 87% | [25] 100% | [26] 100% | [27] 100% | [28] 100% | [29] 100% | [30] 100% | [31] 61% | [32] 92% | [33] 74% | [34] 91% | [35] 92% | [36] 70% | [37] 100% | [38] 100% | [39] 78% | [40] 100% | [41] 100% | [42] 94% | [43] 86% | [44] 99% | [45] 98%

CS(=O)(=O)N1CCCC(NC(=O)[C@H](CCC2CCCCC2)NC(=O)c2ccc(CNC(=O)c3cnc4ccccn34)cc2)C1 (stereo not given in full) [SR-302]
inactive: [1] 83% | [2] 100% | [3] 61% | [4] 94% | [5] 100% | [6] 84% | [7] 94% | [8] 88% | [9] 98% | [10] 99% | [11] 100% | [12] 100% | [13] 100% | [14] 100% | [15] 100% | [16] 100% | [17] 100% | [18] 95% | [19] 100% | [20] 100% | [21] 74% | [22] 100% | [23] 100% | [24] 69% | [25] 100% | [26] 95% | [27] 100% | [28] 100% | [29] 100% | [30] 100% | [31] 100% | [32] 100% | [33] 100% | [34] 93% | [35] 100% | [36] 61% | [37] 100% | [38] 92% | [39] 74% | [40] 100% | [41] 94% | [42] 72% | [43] 88% | [44] 100% | [45] 88%
